Results from patent publication US20260224758A1, “ALPHA-SYNUCLEIN BINDERS AND METHODS OF USE” (Merck Sharp & Dohme LLC, priority 2023, published 2026).
Like-named read-outs stand apart in the source and are kept apart here.

Target: T1, triton-extracted alpha-synuclein from PD Tissue (Homo sapiens, UniProt P37840)
T1 construct: tissue Analytic Biological Services Inc; host or cells: human PD temporal cortex grey matter, Triton X-100 insoluble pellet
Experiment: Alpha-synuclein tissue homogenate binding assay (Assay 1), displacement of [^3H]-1000
Settings: for Ki: read-out: α-synuclein Tissue Ki (Assay 1); for Selectivity ratio (Assay 2/Assay 1): Aβ Tissue Ki / α-synuclein Tissue Ki
Procedure: Frozen human brain tissues from PD patients were purchased from Analytic Biological Services Inc. The samples were post-mortem tissues from donors with clinical diagnosis of late stage of PD. Alpha-synuclein, tau and amyloid burden was determined through a combination of immunohistochemistry on frozen thin coronal sections, as well as alpha Lisa-based quantification of protein levels in a detergent insoluble protein fraction. A tissue sample of temporal cortex was identified from one donor as having moderate to high alpha-synuclein burden, low amyloid and minimal to no tau pathology. The detergent insoluble fraction of temporal cortex from this patient was used to support homogenate binding studies. Grey matter was dissected out of the temporal cortex tissue with a dissecting blade and minced with fine dissecting scissors. […] Homogenates were centrifuged at 100,000×g for 45 minutes. The pellet was resuspended in TBS-TX buffer, using a Polytron at highest setting for 30 seconds at 4° C. Homogenates were centrifuged at 100,000×g for 45 minutes and the pellet was resuspended in TBS-TX buffer. A BCA protein assay was performed on the final homogenate to determine the protein concentration. […] For displacement a-synuclein binding assay, compounds and control were solvated in dimethyl sulfoxide (DMSO) and transferred using focused acoustic energy by an Echo 655 liquid handling instrument (Beckman Coulter, Indianapolis, IN) into designated wells of uniquely bar coded 96-well v-bottom low binding polypropylene microplates (Thermo Scientific, 249946). Compound dose response curves were prepared in a 10-point, 3-fold fashion within columns 2-11 of the microplate from high to low compound concentrations. […] Liquid-handling steps for dispensing insoluble fractions of PD brain homogenates and radioligand were performed using a Bravo automated liquid handling platform equipped with a 96LT disposable tip head (Agilent Technologies, Santa Clara. CA). […] The incubation was terminated by rapid filtration through UniFilter-96 GF/C microplates (pre-treated for 30 minutes with 0.2% Polyethylenimine at 4° C.) by using a FilterMate Harvester (PerkinElmer). […] The bottom of each UniFilter-96 GF/C microplate was adhesively sealed (PerkinElmer 6005199) prior to the addition of 50 μL MicroScint-20 liquid scintillation cocktail (PerkinElmer 6013621) to each well. A clear adhesive seal (TopSeal-A PLUS, PerkinElmer 6050185) was then applied to the top of each microplate and counted 1 minute/well on MicroBeta^2 system (PerkinElmer.

[1] = insoluble fraction of PD brain homogenate, [^3H]-1000 3.0 nM, Kd 0.90 nM

| Compound | Ki [1] | Selectivity ratio (Assay 2/Assay 1) | Ki |
| --- | --- | --- | --- |
| OC[C@H]1CN(c2ncc(/C=C/c3ccc(-n4ccnc4)nc3)cn2)CCN1c1ncccn1 [Example 1, (R,E)-(4-(5-(2-(6-(1H-imidazol-1-yl)pyridin-3-yl)vinyl)pyrimidin-2-yl)-1-(pyrimidin-2-yl)piperazin-2-yl)methanol] | 1.6 nM | – | – |
| FCCOC[C@H]1CN(c2ncc(/C=C/c3ccc(-n4ccnc4)nc3)cn2)CCN1c1ncccn1 [Example 3, (R,E)-5-(2-(6-(1H-imidazol-1-yl)pyridin-3-yl)vinyl)-2-(3-((2-fluoroethoxy)methyl)-4-(pyrimidin-2-yl)piperazin-1-yl)pyrimidine] | 0.5 nM | 8000 | – |
| COC[C@H]1CN(c2ncccn2)CCN1c1ncc(/C=C/c2ccc(-n3ccnc3)nc2)cn1 [Example 28, (R,E)-5-(2-(6-(1H-imidazol-1-yl)pyridin-3-yl)vinyl)-2-(2-(methoxymethyl)-4-(pyrimidin-2-yl)piperazin-1-yl)pyrimidine] | 1.3 nM | 3077 | – |
| COC[C@H]1CN(c2ncc(/C=C/c3ccc(-n4ccnc4)nc3)cn2)CCN1c1ncc(OCCF)cn1 [Example 35, (R,E)-5-(2-(6-(1H-imidazol-1-yl)pyridin-3-yl)vinyl)-2-(4-(5-(2-fluoroethoxy)pyrimidin-2-yl)-3-(methoxymethyl)piperazin-1-yl)pyrimidine] | 2 nM | 2000 | – |
| COC[C@H]1CN(c2ncc(/C=C/c3ccc(-n4ccnc4)nc3)cn2)CCN1c1ncc(OCC(O)CF)cn1 (stereo partly drawn) [Example 39, 1-((2-((R)-4-(5-((E)-2-(6-(1H-imidazol-1-yl)pyridin-3-yl)vinyl)pyrimidin-2-yl)-2-(methoxymethyl)piperazin-1-yl)pyrimidin-5-yl)oxy)-3-fluoropropan-2-ol] | 0.52 nM | 7692 | – |

Next, values leading:

| Ki [1] | Selectivity ratio (Assay 2/Assay 1) | Ki | Compound |
| --- | --- | --- | --- |
| – | 3636 | 1.1 nM | COC[C@H]1CN(c2ncc(C#Cc3ccc(-n4ccnc4)nc3)cn2)CCN1c1cc(F)ncn1 [Example 12, (R)-5-((6-(1H-imidazol-1-yl)pyridin-3-yl)ethynyl)-2-(4-(6-fluoropyrimidin-4-yl)-3-(methoxymethyl)piperazin-1-yl)pyrimidine] |
| – | – | 1.22 nM | Cn1cc(-c2ncc(/C=C/c3cnc(N4CCN(c5ncncn5)[C@@H](COCCF)C4)nc3)cn2)cn1 [Example 43, (R,E)-2-(2-((2-fluoroethoxy)methyl)-4-(5-(2-(2-(1-methyl-1H-pyrazol-4-yl)pyrimidin-5-yl)vinyl)pyrimidin-2-yl)piperazin-1-yl)-1,3,5-triazine] |
| 0.694 nM | – | – | COC[C@H]1CN(c2ncc(C#Cc3ccc(-c4cnn(CCF)c4)nc3)cn2)CCN1c1ncncn1 [Example 47, (R)-2-(4-(5-((6-(1-(2-fluoroethyl)-1H-pyrazol-4-yl)pyridin-3-yl)ethynyl)pyrimidin-2-yl)-2-(methoxymethyl)piperazin-1-yl)-1,3,5-triazine] |
| 0.897 nM | – | – | FCCOCCOC[C@H]1CN(c2ncc(C#Cc3ccc(-c4cnco4)nc3)cn2)CCN1c1ncncn1 [Example 48, (R)-5-(5-((2-(3-((2-(2-fluoroethoxy)ethoxy)methyl)-4-(1,3,5-triazin-2-yl)piperazin-1-yl)pyrimidin-5-yl)ethynyl)pyridin-2-yl)oxazole] |
| 2.91 nM | – | – | Cn1ccc(-c2ncc(C#Cc3cnc(N4CCN(c5ncncn5)[C@@H](COCCF)C4)nc3)cn2)n1 [Example 49, (R)-2-(2-((2-fluoroethoxy)methyl)-4-(5-((2-(1-methyl-1H-pyrazol-3-yl)pyrimidin-5-yl)ethynyl)pyrimidin-2-yl)piperazin-1-yl)-1,3,5-triazine] |
| 0.32 nM | – | – | Cn1cc(-c2ncc(C#Cc3cnc(N4CCN(c5ccncn5)[C@@H](COCCF)C4)nc3)cn2)cn1 [Example 53, (R)-2-(3-((2-fluoroethoxy)methyl)-4-(pyrimidin-4-yl)piperazin-1-yl)-5-((2-(1-methyl-1H-pyrazol-4-yl)pyrimidin-5-yl)ethynyl)pyrimidine] |
